These results are taken from patent US20070258972A1, “Combination of a Histone Deacetylase Inhibitor with a Death Receptor Ligand” (priority 2003, published 2007).

The subject of test [1] is SKW 6.4 and Jurkat leukemia cells. The test can be described thus: Multi-probe RNase protection assay of mRNA levels. In kind it is cell-based, human. The method, then: A RiboQuant Multi-Probe RNase Protection Assay System was used according to the manufacturer's instructions (BD/PharMingen, San Diego, Calif.). A probe set, hAPO-3d (FLICE, FAS, DR5, DR4 and TRAIL) was used for T7 RNA-polymerase directed synthesis of [α-32P] UTP-labeled antisense RNA probes. The probe set contains the DNA templates, including glyceraldehyde-3-phosphate dehydrogenase (GAPDH) used as internal control. The probes (1×10^6 cpm/reaction) are hybridized with 20 μg of RNA isolated from the SKW 6.4 and Jurkat leukemia cells, following treatment with 100 nM LAQ824 at different time points using the RNeasy Mini kit (Qiagen, Valencia, Calif.). After overnight hybridization, samples are digested with RNase to remove single-stranded (non-hybridized) RNA. The remaining probes are resolved on 5% de-naturing polyacrylamide gel and analyzed by autoradiography.

The subject of test [2] is HDAC. Conditions: 5-250 nM; HeLa cell nuclear extracts; previously reported; cited from earlier work.
For test [3], the system named is primary AML blasts. The test can be described thus: Western analyses of proteins, primary AML blasts. The format is cell-based, human. How it is done: Western analyses of DR4, DR5, Apo-2L, FADD, Caspase-8, c-FLIPL & S, BID, Caspase-9, Caspase-3, PARP, XIAP, clAP1, survivin and β-actin are performed using specific anti-sera or monoclonal antibodies according to previously reported protocols. Horizontal scanning densitometry was performed on Western blots by using acquisition into Adobe Photo Shop (Apple, Inc., Cupertino, Calif.) and analysis by the NIH Image Program (U.S. National Institutes of Health, Bethesda, Md.). The expression of β-actin was used as a control.

The test system of test [4] is SKW 6.4 and Jurkat cells. The test can be described thus: Flow cytometry analysis of cell cycle status. In kind it is cell-based, human. Conditions: 24 hours. How it is done:
The flow cytometric evaluation of the cell cycle status is performed according to a previously described method. The percentage of cells in the G1, S-phase, and G2/M phases are calculated using Multicycle software (Phoenix Flow Systems, San Diego, Calif.).
(In general: A flow cytometer gives signals particle by particle.)

Test [5] relates to Apo-2L/TRAIL-induced DISC. Nature of the test: Apo-2L/TRAIL-induced DISC analysis. The format is cell-based, human. Conditions: LAQ824 100 nM for 24 hours followed by Apo-2L/TRAIL (100 ng/mL for two hours) versus Apo-2L/TRAIL; not c-FLIPL. How it is done: Untreated or LAQ824 treated SKW 6.4 or Jurkat cells are suspended at a final concentration of 10^6 cells/mL in a pre-warmed, complete RPMI media. Cells are treated with 100 ng/mL Apo-2L/TRAIL for 2 hours at 37° C, followed by washing with 1 mL of ice-cold PBS. Cells are lysed in 500 μL lysis buffer (25 mM Tris-HCl, pH 7.2, 150 mM NaCl, 25 mM NaF, 1 mM benzamidine, 1.0% Triton X-100, 2 μg/mL aprotinin 2 μg/mL leupeptin, 1 μg/mL pepstin-A and 0.1 μg/mL PMSF) for 30 minutes on ice. In the untreated controls, 100 ng/mL Apo-2L/TRAIL was added after lysis of cells, to immunoprecipitate non-stimulated Apo-2L/TRAIL receptors. One-hundred micrograms (100 μg) of the lysates was incubated at 4° C. for 2 hours with 1 μg each of anti-Apo-2L/TRAIL receptor 1 & 2 (DR4 and DR5) antibodies, provided by Immunex Corp., Seattle Wash. The immune-complexes are incubated overnight at 4° C. with 20 μL of protein A-agarose beads (Roche, Indianapolis, Ind.). The beads are recovered by centrifugation and washed twice with the lysis buffer. The pellet was re-suspended in the sample buffer and analyzed by SDS-PAGE and immunoblot analysis using antibodies against caspase-8, DR5, DR4 and FADD.

[6] abbreviates: 8 hours or 16 hours, densitometry, GAPDH loading control.

Each structure is given as a SMILES string.

On to `O=C(/C=C/c1ccc(CN(CCO)CCc2c[nH]c3ccccc23)cc1)NO` [LAQ824, N-hydroxy-3-[4-[[(2-hydroxyethyl)[2-(1H-indol-3-yl)ethyl]-amino]methyl]phenyl]-2E-2-propenamide], for which, in test [1], the “mRNA levels of Apo-2L/TRAIL and caspase-8 (FLICE)” value is on record as “only minimally affected”. In addition, in test [1] (setting [6]), the “mRNA expression of DR5, increase” value turned out to be 2.4 fold and the “mRNA expression of FAS, increase” value came out at 1.5 fold. Further, the “DR4 mRNA levels, increase” value in test [1] (only in SKW 6.4 cells) amounted to 2.2 fold. In test [2], the “in vitro HDAC activity” value was “inhibits the in vitro HDAC activity in a dose-dependent manner”. Besides, in test [3], the “DR4 and DR5 levels” value was “increases”; the “levels of FLIPL and c-FLIPS” value is given as “down-regulates”. In addition, the “acetylation of histones H3 and H4” value in test [3] (100 nM or 250 nM, 24 hours) is recorded as “induces”. For the same compound, in test [4], the “cells in the S phase of the cell cycle” value is reported as “decline” and the “percentage of cells in the G1 phase” value is “markedly increases”. Moreover, in test [5], the “recruitment of FADD and caspase-8 into the immunoprecipitates of DR4 & DR5” value is recorded as “more recruitment”.
